Data reported in US8916183B2, “Pesticidal compositions and processes related thereto” (priority 2012, dated 2014).

Key:
Assay type in all cases: in vivo
[1] = test system: Beet Armyworm (BAW) (Spodoptera exigua); experiment: Bioassay on beet armyworm (BAW), 128-well diet tray assay; settings: Spodoptera exigua; beet armyworm, 50 μg/cm^2; read-out: % Mortality BAW 50 μg/cm^2
[2] = test system: Green Peach Aphid (GPA) (Myzus persicae); experiment: Bioassay on green peach aphid (GPA), foliar spray on cabbage seedlings; settings: green peach aphid, 200 ppm, read-out: % Mortality GPA 200 ppm
In short: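 Cabbage seedlings (2-3 true leaves), each infested a day earlier with 20-50 wingless adult and nymph GPA, were sprayed on both leaf sides to runoff, four pots per treatment. Corrected % control was calculated against solvent-check plants.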

[3] = test system: Corn Earworm (CEW) (Helicoverpa zea); experiment: Bioassay on corn earworm (CEW), 128-well diet tray assay; settings: Helicoverpa zea; corn earworm, 50 μg/cm^2; read-out: % Mortality CEW 50 μg/cm^2
In short: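 Larvae in a 128-well diet tray were held at 25° C under 14:10 light-dark for five to seven days. Percent mortality was scored per well and averaged over eight wells, then reported on a rating scale.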

| SMILES | mortality at 50 µg/cm2 [1] | mortality at 200 ppm [2] | mortality at 50 µg/cm2 [3] |
| --- | --- | --- | --- |
| COc1cc(C)c(/N=C(/N/N=C/c2ccc(-c3ncn(-c4ccc(OC(F)(F)F)cc4)n3)cc2)SCC(=O)NCCCN)c(C)c1 [Compound 64C] | 50 to 100% | 0% | 50 to 100% |
| Cc1cccc(C)c1/N=C(/N/N=C/c1ccc(-c2ncn(-c3ccc(OC(F)(F)F)cc3)n2)cc1)SCC(=O)O [Compound 47C] | 50 to 100% | 0 to 80% | 50 to 100% |
| CC1(O)CS/C(=N\N=C\c2ccc(-c3ncn(-c4ccc(OC(F)(F)F)cc4)n3)cc2)N1c1c(F)cccc1F (stereo not drawn) [Compound 240C] | 50 to 100% | 0% | 50 to 100% |
| Cc1cccc(C)c1/N=C(/N/N=C/c1ccc(-c2ncn(-c3ccc(OC(F)(F)F)cc3)n2)cc1)SCc1c(-c2ccccc2)noc1C [Compound 20C] | 50 to 100% | 0% | 50 to 100% |
| Cc1cccc(C)c1-n1c(-c2ccc(C(F)(F)F)cc2)cs/c1=N\N=Cc1ccc(-c2ncn(-c3ccc(OC(F)(F)F)cc3)n2)cc1 [Compound 79C] | 50 to 100% | 0 to 80% | 50 to 100% |
| COc1ccccc1N1C(=O)CS/C1=N\N=C\c1ccc(-c2ncn(-c3ccc(OC(F)(F)F)cc3)n2)cc1 [Compound 92C] | 50 to 100% | 0 to 80% | 50 to 100% |
| Cc1cccnc1N1C(=O)CS/C1=N\N=C\c1ccc(-c2ncn(-c3ccc(OC(F)(F)F)cc3)n2)cc1 [Compound 117C] | 50 to 100% | 0% | 50 to 100% |
| Cc1cccc(C)c1/N=C(/N/N=C/c1ccc(-c2ncn(-c3ccc(OC(F)(F)F)cc3)n2)cc1)SCC(=O)NCCCN [Compound 66C] | 50 to 100% | 0 to 80% | 50 to 100% |
| COCCOC(C)C(=O)OCS/C(=N\c1c(C)cc(OC)cc1C)N/N=C/c1ccc(-c2ncn(-c3ccc(OC(F)(F)F)cc3)n2)cc1 (stereo not drawn) [Compound 42C] | 50 to 100% | 0% | 50 to 100% |
| COc1cccc(N2CCCS/C2=N\N=C\c2ccc(-c3ncn(-c4ccc(OC(F)(F)F)cc4)n3)cc2)c1 [Compound 206C] | 50 to 100% | 0% | 50 to 100% |
| Cc1cc(C)c(N2CCS/C2=N\N=C\c2ccc(-c3ncn(-c4ccc(OC(F)(F)F)cc4)n3)cc2)c(C)c1 [Compound 139C] | 50 to 100% | 0 to 80% | 50 to 100% |
| CCc1ccccc1N1C(=O)CS/C1=N\N=C\c1ccc(-c2ncn(-c3ccc(OC(F)(F)F)cc3)n2)cc1 [Compound 94C] | 50 to 100% | 0% | 50 to 100% |
| Cc1cccc(C)c1/N=C(/N/N=C/c1ccc(-c2ncn(-c3ccc(OC(F)(F)F)cc3)n2)cc1)SCC(=O)NCC(C)C [Compound 55C] | 50 to 100% | 0% | 50 to 100% |
| CC1CS/C(=N\N=C\c2ccc(-c3ncn(-c4ccc(OC(F)(F)F)cc4)n3)cc2)N(c2ccccc2C(C)C)C1 (racemic) [Compound 178C] | 50 to 100% | 0% | 50 to 100% |
| CS/C(=N\c1ccc(N(C)C)cc1)N/N=C/c1ccc(-c2ncn(-c3ccc(OC(F)(F)F)cc3)n2)cc1 [Compound 1C, N-(4-dimethylaminophenyl)-S-methyl-2-{4-[1-(4-trifluoromethoxyphenyl)-1H-[1,2,4]-triazol-3-yl]-benzylidene}-hydrazine-carbothioamide] | 50 to 100% | 0% | 50 to 100% |
| CC1S/C(=N\N=C\c2ccc(-c3ncn(-c4ccc(OC(F)(F)F)cc4)n3)cc2)N(c2c(F)cccc2F)C1=O (stereo not drawn) [Compound 131C] | 50 to 100% | 0% | 50 to 100% |
| O=C1CS/C(=N\N=C\c2ccc(-c3ncn(-c4ccc(OC(F)(F)F)cc4)n3)cc2)N1c1c(Cl)cccc1Cl [Compound 70C] | 50 to 100% | 0% | 50 to 100% |
| FC(F)(F)Oc1ccc(-n2cnc(-c3ccc(/C=N/N=C4\SCCCN4c4c(Cl)cccc4Cl)cc3)n2)cc1 [Compound 187C] | 50 to 100% | 0% | 50 to 100% |
| FC(F)(F)Oc1ccc(-n2cnc(-c3ccc(/C=N/N=C4\SCCCN4c4ccccc4C4CC4)cc3)n2)cc1 [Compound 186C] | 50 to 100% | 0 to 80% | 50 to 100% |
| COc1cc(C)c(-n2c(C)cs/c2=N\N=C\c2ccc(-c3ncn(-c4ccc(OC(F)(F)F)cc4)n3)cc2)c(C)c1 [Compound 172C] | 50 to 100% | 0% | 50 to 100% |
| CC(C)=Cc1ccccc1N1CCCS/C1=N\N=C\c1ccc(-c2ncn(-c3ccc(OC(F)(F)F)cc3)n2)cc1 [Compound 197C] | 50 to 100% | 0% | 50 to 100% |

| SMILES | mortality at 50 µg/cm2 [1] | mortality at 200 ppm [2] | mortality at 50 µg/cm2 [3] |
| --- | --- | --- | --- |
| CC(C)Cc1ccccc1N1CCS/C1=N\N=C\c1ccc(-c2ncn(-c3ccc(OC(F)(F)F)cc3)n2)cc1 [Compound 150C] | 50 to 100% | 0% | 50 to 100% |
| Cc1cccc(C)c1/N=C(/N/N=C/c1ccc(-c2ncn(-c3ccc(OC(F)(F)F)cc3)n2)cc1)SCc1cccc2nsnc12 [Compound 14C] | 50 to 100% | 0 to 80% | 50 to 100% |
| Cc1cccc(C)c1/N=C(/N/N=C/c1ccc(-c2ncn(-c3ccc(OC(F)(F)F)cc3)n2)cc1)SCc1ccc(C(=O)O)cc1 [Compound 6C] | 50 to 100% | 0% | 50 to 100% |
| Cc1cc(C)c(N2CCCS/C2=N\N=C\c2ccc(-c3ncn(-c4ccc(OC(F)(F)F)cc4)n3)cc2)c(C)c1 [Compound 184C] | 50 to 100% | 0% | 50 to 100% |
| CC(C)c1ccccc1N1/C(=N/N=C/c2ccc(-c3ncn(-c4ccc(OC(F)(F)F)cc4)n3)cc2)SCC1(C)O (stereo not drawn) [Compound 242C] | 50 to 100% | 0 to 80% | 50 to 100% |
| CC1CS/C(=N\N=C\c2ccc(-c3ncn(-c4ccc(OC(F)(F)F)cc4)n3)cc2)N1c1ccccc1OC(F)(F)F (stereo not drawn) [Compound 168C] | 50 to 100% | 0% | 50 to 100% |
| FC(F)(F)Oc1ccc(-n2cnc(-c3ccc(/C=N/N=C4\SCCCN4c4c(Cl)cccc4C(F)(F)F)cc3)n2)cc1 [Compound 190C] | 50 to 100% | 0 to 80% | 50 to 100% |
| Fc1cccc(Cl)c1N1CCCS/C1=N\N=C\c1ccc(-c2ncn(-c3ccc(OC(F)(F)F)cc3)n2)cc1 [Compound 188C] | 50 to 100% | 0 to 80% | 50 to 100% |
| Cc1ccccc1N1CCCS/C1=N\N=C\c1ccc(-c2ncn(-c3ccc(OC(F)(F)F)cc3)n2)cc1 [Compound 195C] | 50 to 100% | 0 to 80% | 50 to 100% |
| O=C1CS/C(=N\N=C\c2ccc(-c3ncn(-c4ccc(OC(F)(F)F)cc4)n3)cc2)N1c1c(F)cccc1F [Compound 89C] | 50 to 100% | 0% | 50 to 100% |
| Cc1cccc(C)c1-n1c(-c2nccs2)cs/c1=N\N=Cc1ccc(-c2ncn(-c3ccc(OC(F)(F)F)cc3)n2)cc1 [Compound 75C] | 50 to 100% | 0 to 80% | 50 to 100% |
| COc1cc(C)c(/N=C(/N/N=C/c2ccc(-c3ncn(-c4ccc(OC(F)(F)F)cc4)n3)cc2)SCC(=O)C2CCNCC2)c(C)c1 [Compound 65C] | 50 to 100% | 0 to 80% | 50 to 100% |
| CCC(C)c1ccccc1N1CCCS/C1=N\N=C\c1ccc(-c2ncn(-c3ccc(OC(F)(F)F)cc3)n2)cc1 (stereo not drawn) [Compound 183C] | 50 to 100% | 0% | 50 to 100% |
| CCC(C)c1ccccc1N1C(=O)CS/C1=N\N=C\c1ccc(-c2ncn(-c3ccc(OC(F)(F)F)cc3)n2)cc1 (stereo not drawn) [Compound 108C] | 50 to 100% | 0% | 50 to 100% |
| CC(/N=C(/N/N=C/c1ccc(-c2ncn(-c3ccc(OC(F)(F)F)cc3)n2)cc1)SCC(=O)O)c1ccccc1 (stereo not drawn) [Compound 54C] | 50 to 100% | 0% | 50 to 100% |
| Cc1cc(Br)cc(C)c1N1CCCS/C1=N\N=C\c1ccc(-c2ncn(-c3ccc(OC(F)(F)F)cc3)n2)cc1 [Compound 203C] | 50 to 100% | 0 to 80% | 50 to 100% |
| COc1ccccc1N1CCS/C1=N\N=C\c1ccc(-c2ncn(-c3ccc(OC(F)(F)F)cc3)n2)cc1 [Compound 140C] | 50 to 100% | 0 to 80% | 50 to 100% |
| Cc1cccc(C)c1/N=C(/N/N=C/c1ccc(-c2ncn(-c3ccc(OC(F)(F)F)cc3)n2)cc1)SCc1cc2c(C(F)(F)F)nn(C)c2s1 [Compound 19C] | 50 to 100% | 0 to 80% | 50 to 100% |
| Cc1cccc(Cl)c1N1/C(=N/N=C/c2ccc(-c3ncn(-c4ccc(OC(F)(F)F)cc4)n3)cc2)SCC1(C)O (stereo not drawn) [Compound 244C] | 50 to 100% | 0% | 50 to 100% |
| Cc1ccccc1-n1c(C)cs/c1=N\N=C\c1ccc(-c2ncn(-c3ccc(OC(F)(F)F)cc3)n2)cc1 [Compound 173C] | 50 to 100% | 0% | 50 to 100% |
